The results in this text go back to PMC3984256, “A PCNA-Derived Cell Permeable Peptide Selectively Inhibits Neuroblastoma Cell Growth” (PLoS ONE, 2014).

One experiment relates to ãH2A.X level. The experiment in a line: γH2A.X western blot after γ-irradiation. The class given is cell-based. The note with it: 30 µM peptide, 2 h pretreatment, 5 Gy. The procedure: To study DNA damage and repair, attached cells were pretreated with the peptides for 2 h and were then ã-irradiated (5 Gy). After irradiation, cells were cultured in the presence of the peptides for the indicated time. For analyzing ãH2A.X foci formation, cells were fixed in a solution of methanol and acetone (70%:30% v/v) for 15 min at −20°C. The slides were air-dried for storage and rehydrated in PBS prior to immunostaining. Cells were stained by a mouse monoclonal antibody specific to ãH2A.X (Millipore, Billerica, MA) followed by an Alexa Fluor 488 conjugated anti-mouse IgG antibody. For analyzing Rad51 foci formation, cells were fixed in PBS buffered 4% paraformaldehyde at room temperature for 15 min. After being washed twice by PBS, cells were permeabilized in PBS containing 0.5% triton for 15 min on ice. The fixed and permeabilized cells were stained with a rabbit polyclonal antibody raised against the human Rad51 (Santa Cruz) followed by an Alexa Fluor 488 conjugated anti-rabbit IgG antibody. Stained cells were visualized and imaged by a confocal microscope.
Cell extracts were prepared by dissolving cell pellets directly into the Laemmli sample buffer and resolved in a 4–12% SDS polyacrylamide gel. Resolved proteins were blotted onto a nitrocellulose membrane. The membrane was blocked with 5% nonfat dry milk and incubated with an antibody specific to ãH2A.X (Millipore), total H2A.X (Cell Signaling Technology, Danvers, MA), MYCN (Cell Signaling Technology), or actin (Sigma) in the blocking buffer. After incubation with peroxidase-conjugated secondary antibodies, the protein of interest was detected using an ECL kit purchased from GE Healthcare.
In general terms: In western blotting, separated proteins are transferred to a membrane and probed.

Experiment [1] deals with PCNA and POLD3 co-localization in SK-N-AS NB cells. The experiment in a line: PCNA/POLD3 co-localization, immunofluorescence. In kind it is cell-based, human. To be noted: synchronized, 30 µM peptide 6 h after mimosine release. The method, then:
Cells were seeded at 1×10^5/ml onto a chamber slide and were allowed to attach overnight. To analyze the interaction of PCNA with FEN1, LIGI, or Pol ä, we first synchronize cells at the G1/S boundary. The synchronization is achieved by starving cells in medium containing 0.25% FBS for 24 h. Cells were further cultured in the complete medium containing 400 µM of mimosine for 24 h. To release cells into S phase, cells were washed and incubated in mimosine-free medium containing 30 µM R9-caPep or R9-srbPep for 6 h. We pre-determined that the majority of cells were in the S-phase 6 h after mimosine was removed (data not shown). Cells were fixed in ice-cold methanol:acetone (50%:50%) for 10 min or in 4% paraformaldehyde for 20 min at room temperature. Cells were incubated with a goat polyclonal anti-PCNA antibody (Santa Cruz) and a mouse monoclonal anti-FEN1 antibody (Santa Cruz), a mouse anti-POLD3 antibody (Sigma, St. Louis, MO), or a mouse anti-LIGI antibody (Abcam, Cambridge, MA) for 1 h at room temperature. After being washed with PBS, cells were incubated with Alexa Fluor 488 conjugated anti-mouse IgG and Alexa Fluor 555 conjugated anti-goat IgG antibodies (Invitrogen, Grand Island, NY) for 1 h. Cells were mounted in Vectashield with DAPI (Vector Labs, Burlingame, CA) and visualized by a confocal microscope.

A further experiment deals with PCNA and p21 interaction. The experiment can be described thus: PCNA and p21 interaction in vitro. In kind it is binding. To be noted: data not shown.
The subject of experiment [2] is non-malignant 7SM0032 cells. The experiment can be described thus: Cell cycle analysis by PI flow cytometry, 7SM0032. In kind it is cell-based, human. To be noted: 7SM0032, same treatment (40 µM, 48 h), vs NB cells. The method, then: Cells were seeded at 1×10^5/ml. Once attached, cells were treated with or without R9-caPep for 48 hours. Cells were fixed in 60% ethanol and stained with propidium iodide (PI). The cellular PI fluorescence intensity was determined by flow cytometry. The flow cytometry data were analyzed by the FlowJo program to model various cell populations.

For experiment [3], the system named is SSA-mediated DSB repair, U2OS-derived SA-GFP cells. The experiment in a line: DSB repair reporter assay, SSA (SA-GFP). In kind it is cell-based. The note with it: 30 µM, GFP-positive cells 3 d after I-SceI transfection, normalized to R9-srbPep, triplicates. The method, then: The plasmid pCBASce expresses the rare cutting I-SceI meganuclease. The U2OS-derived cell lines, DR-GFP, EJ5-GFP, and SA-GFP contain a stably transfected reporter gene for DSB repair mediated by HR, end joining (EJ), and single-strand annealing (SSA), respectively. These cell lines were cultured in DMEM medium with 10% FBS at 37°C in the presence of 5% CO2.
DR-GFP, EJ5-GFP, and SA-GFP cell lines were seeded at 2.5×10^4 cells/cm^2 in a 12-well plate. Once attached overnight, cells were transfected with 1.2 µg of the pCBASce I-SceI expression plasmid mixed with 3.6 µl of Lipofectamine 2000 (Invitrogen) in 200 µl of Optimem media (Invitrogen). After incubation for 3 h, the media containing transfection complexes was aspirated and replaced with fresh media containing 30 µM of the peptides. The HR, EJ, and SSA-mediated DSB repair, indicated by the restoration of a functional GFP gene in the respective cell lines, were quantified by measuring the relative abundance of GFP-positive cells by flow cytometry 3 d after transfection.
(In general: In a reporter assay the amount or activity of a reporter protein is the signal.)

Entries after “also recorded” stand apart in the source; their conditions may differ. Where a SMILES comes first, the peptide text is derived from it. [ ]: non-standard residue; d: D form.

On to `CC[C@H](C)[C@H](NC(=O)CNC(=O)[C@H](CC(C)C)NC(=O)[C@H](CS)NC(=O)[C@H](CS)NC(=O)[C@@H](CCCNC(=N)N)NC(=O)[C@@H](CCCNC(=N)N)NC(=O)[C@@H](CCCNC(=N)N)NC(=O)[C@@H](CCCNC(=N)N)NC(=O)[C@@H](CCCNC(=N)N)NC(=O)[C@@H](CCCNC(=N)N)NC(=O)[C@@H](CCCNC(=N)N)NC(=O)[C@@H](CCCNC(=N)N)NC(=O)[C@H](N)CCCNC(=N)N)C(=O)N1CCC[C@H]1C(=O)N[C@@H](CCC(=O)O)C(=O)N[C@@H](CCC(N)=O)C(=O)N[C@@H](CCC(=O)O)C(=O)N[C@@H](Cc1ccc(O)cc1)C(=O)O` [R9-caPep] (H-[dR][dR][dR][dR][dR][dR][dR][dR][dR]CCLGIPEQEY-OH; N-terminus and C-terminus assumed), for which, in the experiment on ãH2A.X level, the “ãH2A.X level within 30 min after irradiation” value is recorded as “increased within 30 min following ã-irradiation in cells treated with either peptide”. Moreover, the “ãH2A.X level 48 h after irradiation” value in the experiment with ãH2A.X level (48 h) was “remained elevated”. Further, the “recruitment of POLD3 to PCNA” value in experiment [1] was “did not seem to affect the recruitment of POLD3 to PCNA”. Moreover, the “effect on PCNA and p21 interaction” value in the experiment with PCNA and p21 interaction is “did not block PCNA and p21 interaction in vitro”. Moreover, the “effect on cell cycle progression in non-malignant cells” value in experiment [2] is “significantly less effect on cell cycle progression and cell survival”. The “SSA-mediated DNA repair” value in experiment [3] is reported as “only small effects on EJ or SSA; also recorded: slightly enhances DNA repair through SSA”.
